Test results reported in patent US20090110671A1, “AGENT FOR ENHANCHING THE PRODUCTION OF COLLAGEN AND IT'S USE” (priority 2005, published 2009).

What was measured:
[1] = tested on: NHDF cells; assay: Experiment 4: collagen production in NHDF cells, saccharides combined with hyaluronic acid and/or chondroitin sulfate; type: cell-based, human
Source text: Influence of α,α-trehalose or a saccharide derivative thereof, or a combination use of any of these saccharides and hyaluronic acid and/or chondroitin sulfate on the collagen production by L-ascorbic acids was examined as follows. AA-2G and any one of hydrous crystalline α,α-trehalose, a reagent grade specimen commercialized by Hayashibara Biochemical Laboratories Inc., Okayama, Japan; α-maltosyl α,α-trehalose with a purity of at least 98% commercialized by Hayashibara Biochemical Laboratories Inc., Okayama, Japan; and “HALLODEX”, a product name of a syrup of saccharide derivatives of α,α-trehalose were dissolved in D-MEM medium to give final concentrations of 50 μM of AA-2G and 15.0 mg/ml of saccharides. Further, as another test solutions, those, which had been prepared similarly as in the above, were admixed with any one of hyaluronic acid, chondroitin sulfate, and a combination thereof to give respective concentrations of 1 mg/ml, 1 mg/ml, and 0.5 mg/ml of hyaluronic acid and chondroitin sulfate each. The medium supplemented with a syrup containing about 59%, d.s.b., of saccharide derivatives of α,α-trehalose was prepared to give a concentration of 15.0 mg/ml of the saccharide derivatives of α,α-trehalose contained in the syrup. The culture of NHDF cells and the quantification of collagen-production level thereof were carried out similarly as in Experiment 1. The results are in Table 4 where the values are expressed with relative values in terms of the collagen-production level of NHDF cells, being regarded as 100, when cultured in D-MEM medium containing AA-2G.

[2] = tested on: skin wrinkles/finely-wrinkles and flabby skin; assay: Experiment 5: self-evaluation of lotions on skin wrinkles/finely-wrinkles and flabby skin, four months; type: in vivo, human; conditions: 4 months; for Evaluation A (remarkably efficacious) / Evaluation B (efficacious) / Evaluation C (slightly efficacious) / Evaluation D (inefficacious): lotion
Experimental: The following experiment was conducted to examine the influence of α,α-trehalose or saccharide derivatives thereof and hyaluronic acid and/or chondroitin sulfate on the skin. Since there exists a relatively constant amount of L-ascorbic acid in vivo, the collagen production by L-ascorbic acid proceeds constantly. Based on the following basic formulation for lotion and the combination and composition in Table 5, 100 parts by weights of a lotion was prepared by adding to the basic formulation sodium hyaluronate, chondroitin sulfate, hydrous crystalline α,α-trehalose, a cosmetic grade specimen commercialized by Hayashibara Biochemical Laboratories Inc., Okayama, Japan, and “[…]”, a product name of a syrup having a solid content of about 75% and containing, on a dry solid basis, about 53% by weight of α-maltosyl α,α-trehalose and about 5% by weight of other saccharide derivatives of α,α-trehalose, and an adequate amount of refined water. In Table 5, the respective amounts of the added saccharide are expressed on a dry solid basis. The syrup containing saccharide derivatives of α,α-trehalose was added in an amount of the saccharide derivatives as shown in Table 5. Eleven women as volunteers, who had been suffering from skin wrinkles/finely-wrinkles or flabby skin, were allowed to wash their faces with any of the lotions having compositions in Table 5 three times a day for four months and then allowed to evaluate themselves about their face-skin conditions by comparing with those before use of the lotions.

[3] = added saccharide 0.05 part by weight, 3 times a day
[4] = added saccharide 0.1 part by weight, 3 times a day
[5] = added saccharide 1 part by weight, 3 times a day
[6] = added saccharide 2 + chondroitin sulfate 0.5 part by weight
[7] = added saccharide 2 + sodium hyaluronate 0.25 + chondroitin sulfate 0.25 part by weight
[8] = added saccharide 2 + sodium hyaluronate 0.5 part by weight
[9] = added saccharide 2 parts by weight, 3 times a day
[10] = added saccharide 10 parts by weight, 3 times a day
[11] = added saccharide 20 parts by weight, 3 times a day

OC[C@H]1O[C@H](O[C@H]2O[C@H](CO)[C@@H](O)[C@H](O)[C@H]2O)[C@H](O)[C@@H](O)[C@@H]1O [α,α-trehalose]
8 number of volunteers: Evaluation D (inefficacious) [2, 3]
six: volunteers who evaluated the lotions efficacious or more ([2]; lotions with 2 to 20 parts by weight of saccharide)
42: Collagen-production level ([1]; saccharide 15.0 mg/ml alone, no AA-2G, no hyaluronate, no chondroitin sulfate)
3 number of volunteers: Evaluation C (slightly efficacious) [2, 3] | Evaluation A (remarkably efficacious) [2, 6] | Evaluation C (slightly efficacious) [2, 6] | Evaluation B (efficacious) [2, 7] | Evaluation A (remarkably efficacious) [2, 8] | Evaluation C (slightly efficacious) [2, 8] | Evaluation A (remarkably efficacious) [2, 10] | Evaluation B (efficacious) [2, 10] | Evaluation A (remarkably efficacious) [2, 11] | Evaluation B (efficacious) [2, 11]
6 number of volunteers: Evaluation C (slightly efficacious) [2, 5] | Evaluation A (remarkably efficacious) [2, 7]
5 number of volunteers: Evaluation C (slightly efficacious) [2, 4] | Evaluation B (efficacious) [2, 6] | Evaluation C (slightly efficacious) [2, 10] | Evaluation C (slightly efficacious) [2, 11]
0 number of volunteers: Evaluation A (remarkably efficacious) [2, 3] | Evaluation B (efficacious) [2, 3] | Evaluation A (remarkably efficacious) [2, 4] | Evaluation D (inefficacious) [2, 6] | Evaluation D (inefficacious) [2, 7] | Evaluation D (inefficacious) [2, 10] | Evaluation D (inefficacious) [2, 11]
2 number of volunteers: Evaluation B (efficacious) [2, 4] | Evaluation A (remarkably efficacious) [2, 5] | Evaluation B (efficacious) [2, 5] | Evaluation C (slightly efficacious) [2, 7] | Evaluation A (remarkably efficacious) [2, 9]
344: Collagen-production level ([1]; saccharide 15.0 mg/ml + 50 μM AA-2G + hyaluronate and chondroitin sulfate 0.5 mg/ml each)
1 number of volunteers: Evaluation D (inefficacious) [2, 5] | Evaluation D (inefficacious) [2, 8] | Evaluation D (inefficacious) [2, 9]
276: Collagen-production level ([1]; saccharide 15.0 mg/ml + 50 μM AA-2G + sodium hyaluronate 1 mg/ml)
203: Collagen-production level ([1]; saccharide 15.0 mg/ml + 50 μM AA-2G)
256: Collagen-production level ([1]; saccharide 15.0 mg/ml + 50 μM AA-2G + chondroitin sulfate 1 mg/ml)
4 number of volunteers: Evaluation D (inefficacious) [2, 4] | Evaluation B (efficacious) [2, 8] | Evaluation B (efficacious) [2, 9] | Evaluation C (slightly efficacious) [2, 9]
